In brackets after ≈: the same amount, converted by molar mass. Bridge positions count the residues as written; N and C are the ends. Square brackets hold non-standard residues; d marks the D form. Peptide text beside a SMILES is read from it. ξ: configuration not given here. Thr(3ξ) = CC(O)[C@H](N)C(=O)O
Experiments:
Type in all cases: functional
Escherichia coli [1] = experiment: Antibacterial activity against Escherichia coli ATCC 25922 assessed as reduction in […] at 60 uM incubated for 4 hrs by resazurin assay relative to control; set-up: scale not given: the % may be the effect or the level left
Escherichia coli [2] = experiment: Antibacterial activity against Escherichia coli ATCC 25922 assessed as reduction in bacterial cell viability incubated for 4 hrs by resazurin assay; conditions: ATCC 25922, 4 h
Klebsiella pneumoniae = experiment: Antibacterial activity against rifampin and streptomycin resistant Klebsiella pneumoniae VK148 assessed as reduction in bacterial cell viability incubated for 4 hrs by resazurin assay; conditions: VK148, 4 h

`CC[C@H](C)[C@@H]1NC(=O)[C@H](CO)NC(=O)[C@H](C)NC(=O)[C@H](CO)NC(=O)[C@H](Cc2ccc(O)cc2)NC(=O)[C@@H]2CSSC[C@@H]3NC(=O)[C@H](C(C)C)NC(=O)[C@H](CCCCN)NC(=O)[C@H](Cc4ccc(O)cc4)NC(=O)[C@H](CCCCN)NC(=O)[C@H](CO)NC(=O)[C@@H]4CSSC[C@H](NC(=O)[C@H](C(C)O)NC(=O)[C@H](CCC(=O)O)NC(=O)CNC(=O)[C@H](CSSC[C@H](NC(=O)CNC1=O)C(=O)N[C@@H](CO)C(=O)N4)NC(=O)[C@H](C)NC(=O)CNC(=O)[C@@H]1CCCN1C(=O)[C@H](CC(N)=O)NC(=O)CNC(=O)[C@H](CC(N)=O)NC(=O)[C@H](CC(C)C)NC(=O)[C@H]([C@@H](C)O)NC3=O)C(=O)N[C@@H]([C@@H](C)CC)C(=O)N[C@@H](Cc1c[nH]c3ccccc13)C(=O)NCC(=O)N[C@@H](CCCCN)C(=O)N2` (stereo partly drawn) (cyclo(ACGE[Thr(3ξ)]CIWGKCYSASIGCSCSKYKVCTLNGNPG); disulfide 2-18, 6-20, 11-26) was tested, and the Activity (Escherichia coli [1]) was 50%.
With `CC[C@H](C)[C@@H]1NC(=O)[C@H](C)NC(=O)[C@H](CO)NC(=O)[C@H](CO)NC(=O)[C@H]([C@@H](C)CC)NC(=O)[C@@H]2CSSC[C@@H]3NC(=O)[C@H](C(C)C)NC(=O)[C@H](CCCCN)NC(=O)[C@@H](CO)NC(=O)[C@H](CCCCN)NC(=O)[C@H]4CSSC[C@H](NC(=O)[C@H](CO)NC(=O)[C@H](CCC(=O)O)NC(=O)CNC(=O)[C@H](CSSC[C@H](NC(=O)CNC1=O)C(=O)N[C@@H](CO)C(=O)N4)NC(=O)[C@@H]1CCCN1C(=O)[C@H]([C@@H](C)CC)NC(=O)CNC(=O)[C@H](CC(N)=O)NC(=O)[C@@H](CCCNC(=N)N)NC(=O)[C@H](Cc1ccc(O)cc1)NC3=O)C(=O)N[C@@H](C(C)C)C(=O)N[C@@H](Cc1c[nH]c3ccccc13)C(=O)N[C@@H]([C@@H](C)CC)C(=O)N1CCC[C@H]1C(=O)N2` the MIC (Escherichia coli [2]) was 5 µM (≈ 15.7 µg/mL) and the MIC (Klebsiella pneumoniae) was less than 12.5 µM.
